Laboratory results: patent US20050148514A1, “Method and composition for treatment of angiogenesis” (priority 2003, published 2005)
Where no end group is shown, it is not given here.

Columns and labels:
proMMP-2 = assay: Gelatin zymography of conditioned media of serum-starved HUVEC; type: cell-based, Human; conditions: 300 μg/ml, 24 hours
Description: Zymography. Zymography is a technique generally used to analyze the activity of matrix metalloproteinases (MMPs) in biological samples. It involves the electrophoretic separation of proteins under denaturing (Sodium Dodecyl Sulfate (SDS)) but non-reducing conditions through a polyacrylamide gel containing gelatin (for example, 10% gel containing 1 mg/ml gelatin for MMP-9 and MMP-2 assays). The resolved proteins are re-natured by exchanging SDS with a non-ionic detergent such as Triton X-100 and the gel is incubated in an incubation buffer for activation of MMP-2 and MMP-9 (for example at 37° C. for 18 hrs). The gel is stained with Coomassie blue and the MMP-2 and MMP-9 bands may be visualized as clear bands against a blue background (i.e., the MMPs degrade the gelatin and are visualized as clear bands; pro MMP-2 is 68 kDa and pro-MMP-9 is 92 kDa). These bands can be quantified using densitometry.
Cell culture. Human umbilical vein endothelial cells (HUVEC) and pulmonary aortic smooth muscle cells (PASMC) were obtained from Clonetics and maintained in endothelial cell basal medium-2, (EBM-2; Clonetics) and smooth muscle medium-2 (SmGM-2; Clonetics), respectively. […]
The effect of the PCK3145 derivative (SEQ ID NO.:7) on MMP extracellular levels was assessed by gelatin-zymography in the conditioned media of serum-starved HUVEC. […]

[1] = system: total MMP-9, i.e., human active and pro-MMP-9; assay: Total MMP-9 ELISA (Quantikine) on plasma of prostate cancer patients treated with the drug; type: in vivo; conditions: for MMP-9 level in plasma, D27C1: day 27 of treatment cycle 1; for Maximum Reduction of MMP-9: versus baseline D1C1; for MMP-9 level in plasma, D27C2: day 27 of treatment cycle 2
Description: The reconstituted drug used in the present example is made from a solution containing a 20 mg/mL of PCK3145 derivative (SEQ ID NO.:5 derivative); SEQ ID NO.: 7, in a phosphate buffer at pH 7.4 for dilution in sterile saline (0.9% NaCl, BP) prior to intravenous administration. The solutions is filled into Type 1 glass vials, stoppered with Teflon®-faced butyl stoppers, and sealed with flip-off seals.
The drug was administered to patients characterized as having metastatic adenocarcinoma of the prostate, stage 1V prostatic cancer and as having a metastatic hormone resistant prostatic cancer.
Biological samples were drawn during different time points. Plasma samples were placed on dry ice and stored frozen (approximately −70° C.) and subsequently analyzed for total MM P-9 levels.
MMP-9 assay methodology. An Elisa assay measuring total MMP-9, i.e., human active and pro-MMP-9, (Quantikine®, Cat. No.: DMP900, R&D Systems Inc.) was performed on plasma-heparin samples. Plasma samples have been collected from individuals at day 1 (before treatment) and at day 27 of each treatment cycle.
The Quantikine® MMP-9 immunoassay is a solid phase ELISA designed to measure total MMP-9 (92 kDa pro- and 82 kDa active forms) in serum, plasma, saliva, urine and cell culture supernatants. It is calibrated with CHO-cells expressed recombinant human pro-MMP-9 and the antibodies were raised against the recombinant factor. Both antibodies also recognize recombinant human active MMP-9.
The assay employs the quantitative sandwich enzyme immunoassay technique. A monoclonal antibody specific for MMP-9 has been pre-coated onto a microplate. Standards and samples are added into the wells, and MMP-9 is thus bound by the immobilized antibody. After washing away unbound substances, an enzyme-linked polyclonal antibody specific for MMP-9 is added to the wells. Following a wash to remove unbound antibody-enzyme reagent, a substrate solution is added to the wells and color develops in proportion to the amount of total MMP-9 (pro and/or active) bound in the initial step. The color development is stopped and the intensity of the color is measured.
Results of MMP-9 levels in patient's plasma, before and after one or more treatment cycle with PCK3145 derivative; SEQ ID NO.: 7 are illustrated in Table 2.
Normal values of healthy volunteers were not determined in this study but lizasa et al., has determined that the normal range of plasma MMP-9 concentrations is about 11.4 to 59.4 ng/ml. Based on theses values, patients were sub-divided into two categories; those having normal value of MMP-9 (below 100 μg/L) and those having an elevated level of MMP-9 (higher than 100 μg/L) at baseline (see column identified as D1C1 in Table2).

## EWQTDNCETCTCYET (cysteine pairing not given here)
proMMP-2
  inhibition of VEGF-induced proMMP-2 secretion: approximately 50%
[1]; elevated MMP-9 category (patients A, B, C and D), each patient after one cycle of treatment
  change in MMP-9 levels compared to baseline: significant decrease
[1]; normal value MMP-9 category (patients E, F, G, H and I), after one cycle of treatment
  change in MMP-9 levels compared to baseline: no significant decrease
[1]; patient A, after one cycle of treatment
  decrease in MMP-9 levels compared to baseline levels: up to 89%
[1]; patient A, elevated MMP-9 (baseline D1C1 424)
  MMP-9 level in plasma, D27C1: 47.3 µg/L
[1]; patient A
  Maximum Reduction of MMP-9: 89%
[1]; patient B, after cycle 1
  decrease in MMP-9: 41%
[1]; patient B, elevated MMP-9 (baseline D1C1 156.5)
  MMP-9 level in plasma, D27C1: 91.6 µg/L
[1]; patient B, treatment cycle 2
  reduction of baseline level of MMP-9: 64%
[1]; patient B, treatment cycle 3
  reduction of baseline level of MMP-9: 65%
[1]; patient B, treatment cycle 4
  reduction of baseline level of MMP-9: 75%
[1]; patient B
  Maximum Reduction of MMP-9: 75%
[1]; patient C, at cycle 1
  decrease in MMP-9: 90%
[1]; patient C, cycle 2
  reduction in MMP-9 levels: 76%
[1]; patient C, elevated MMP-9 (baseline D1C1 155)
  MMP-9 level in plasma, D27C1: 14.9 µg/L
[1]; patient C
  Maximum Reduction of MMP-9: 90%
[1]; patient D, at cycle 1
  decrease in MMP-9: 34%
[1]; patient D, elevated MMP-9 (baseline D1C1 130.2)
  MMP-9 level in plasma, D27C1: 85.2 µg/L
[1]; patient D
  Maximum Reduction of MMP-9: 34%
[1]; patient E (baseline D1C1 57.5)
  MMP-9 level in plasma, D27C2: 60.1 µg/L
[1]; patient E, after 3 cycles of treatment
  change in MMP-9 levels compared to baseline: still no MMP-9 decrease
[1]; patient E, normal MMP-9 (baseline D1C1 57.5)
  MMP-9 level in plasma, D27C1: 58 µg/L
[1]; patient F, normal MMP-9 (baseline D1C1 53.2)
  MMP-9 level in plasma, D27C1: 73.1 µg/L
[1]; patient G (baseline D1C1 33.9)
  MMP-9 level in plasma, D27C2: 189.6 µg/L
[1]; patient G, normal MMP-9 (baseline D1C1 33.9)
  MMP-9 level in plasma, D27C1: 45.4 µg/L
[1]; patient H (baseline D1C1 57.0)
  MMP-9 level in plasma, D27C2: 65 µg/L
[1]; patient H, normal MMP-9 (baseline D1C1 57.0)
  MMP-9 level in plasma, D27C1: 44.0 µg/L
[1]; patient I, normal MMP-9 (baseline D1C1 22.1)
  MMP-9 level in plasma, D27C1: 18.8 µg/L
[1]; patients E and G, after 2 cycles of treatment
  change in MMP-9 levels compared to baseline: no decrease in MMP-9 levels was observed
